Patent US20080279923A1, “Use of Microtubule Stabilizing Compounds for the Treatment of Lesions of Cns Axons” (Max-Planck-Gesellschaft zur Forderung de Wissensch, priority 2005, published 2008)
Values joined by “and” are separate entries in the source; they are usually repeats but may differ in a detail not shown here. Equal entries are not always repeated.

Columns and labels:
[1] = i.v. in mice; cited from earlier work
rat hippocampal neurons [2] = assay: Microtubule stability assay: Nocodazole-induced microtubule retraction in hippocampal neurons; assay type: cell-based; conditions: for cells in which microtubule retraction was significantly higher in minor neurites compared to axons: stage 3 neurons, 5 min
Method: (§1) Primary hippocampal neurons derived from rat embryos were cultured following the protocol of Goslin and Banker (1991) and de Hoop et al. (1997). In brief, the hippocampi of E18 rats were dissected, trypsinized, and physically dissociated. The cells were then washed in HBSS, and 1.0-1.3×10^5 cells were plated onto poly-lysine-treated glass coverslips in 6 cm petri dishes containing minimal essential medium (MEM) and 10% heat-inactivated horse serum. The cells were kept in 5% CO2 at 36.5° C. After 12-18 hr, the coverslips were transferred to a 6 cm dish containing astrocytes in MEM and N2 supplements.
Analyzing short term microtubule depolymerization, the fate of individual neurons was followed. Cells localized on the grid of a Cellocate coverslip were photographed. The coverslip was then transferred into HEPES-buffered HBSS containing Nocodazole and incubated for 5 min at 36.5° C. in the incubator. [As Nocodazole is insoluble in aqueous solutions, special care was taken to ensure equal distribution of Nocodazole in HBSS.] After short term incubation, neurons were PHEM-fixed to eliminate depolymerized tubulin subunits and allow clear visualization of microtubules.
To visualize microtubules clearly, an alternative fixation method (PHEM-fixation) was used if required. To get rid of unpolymerized tubulin subunits, cells were simultaneously fixed and permeabilized for 15 min at 37° C. in PHEM buffer (60 mM PIPES and 25 mM HEPES) containing 3.7% paraformaldehyde, 0.25% glutaraldehyde, 5 mM EGTA, 1 mM MgCl, 3.7% sucrose, and 0.1% Triton X-100 (adapted from Smith, 1994) and quenched as above.
To determine the ratio of acetylated to tyrosinated α-Tubulin, the fluorescence signals of different channels of pictures taken with 63× magnification were compared. In the medial part of each process, the average fluorescence intensity of both acetylated and tyrosinated α-Tubulin was measured in a square of 5×5 pixel and the ratio of the values was determined. For minor neurites of the same cell, the average of the ratios was calculated in polarized neurons and used for comparison to the ratio of the corresponding axon. For unpolarized neurons, the highest ratio was compared to the average of the ratios of the remaining neurites. To measure microtubule retraction after Nocodazole treatment, fixed and stained neurons were relocated on the Cellocate coverslips. Pictures were taken of both the actin cytoskeleton (visualized by staining with Rhodamine-coupled Phalloidin) and the microtubules (stained with an antibody recognizing α-Tubulin). The actin cytoskeleton outlining the neuron was used as a reference point to measure retraction of microtubules from the distal part of the processes towards the cell body.
To test the resistance of microtubules to depolymerization, we applied the drug Nocodazole to stage 3 neurons, followed by fixation [in 3.7% PFA/Sucrose, 0.25% Glutaraldehyde, 1×PHEM-buffer and 0.1% Triton X-100] after a brief incubation (FIG. 2 A). Nocodazole is known to disrupt microtubules by binding to β-Tubulin and […], thus inhibiting microtubule dynamics. After fixation, neurons were doublestained for F-Actin and α-Tubulin or acetylated and tyrosinated α-Tubulin. Fluorescence microscopy and CCD imaging was used to quantify retraction of microtubules from the distal end of processes or distribution of posttranslational modifications of α-Tubulin after partial depolymerization of the microtubule cytoskeleton.

rat hippocampal neurons [3] = assay: Process and axon formation during long term incubation with low drug concentrations; assay type: cell-based; conditions: for number of processes which exceeded 60 μm: 2 further DIV; for number of processes per cell: read at 3 DIV; for total neurite length: 3 DIV
Method: as §1
For long term incubation, 0.1 to 30 nM Taxol (Sigma), 0.1 to 1 μM cytochalasin D (Sigma) or 3 nM to 10 μM Nocodazole (Sigma) were added to culture medium after 1 day in culture, and cells were further incubated at 36.5° C. Drugs were kept as stock solutions in DMSO at −20° C. (Taxol: 5 mM; Cytochalasin D: 10 mM; Nocodazole: 6.67 mM).
To detect proteins by immunohistochemistry, cells were fixed in 4% para-formaldehyde for 15 min at 37° C. (20 min for Tau-1 stainings), aldehyde groups were quenched in 50 mM ammonium chloride for 10 min, and the cells were then extracted with 0.1% Triton X-100 for 3 min.
Length and intensity measurements were done using Scion Image Beta 4.0.2 for MS Windows (based on NIH-image). For length measurements, cVisTec Professional 1.0 (cVisTec, Munich, Germany) was additionally used.
So far we had shown that axonal microtubules have a higher ability to resist depolymerization under harsh microtubule-destabilizing conditions. If there was a putative stability difference in axons and minor neurites, we hypothesized that particular growth conditions should allow formation of axons but not minor neurites. To assess the effect of modest microtubule destabilization on process formation, we treated hippocampal neurons after 1 DIV with low concentrations of Nocodazole. After 2 further DIV under such growth conditions cells were fixed [with 4% PFA/Sucrose] and stained for the axonal marker Tau-1. Using fluorescence microscopy, we evaluated effects on the formation of axons and minor neurites.
To test the influence of microtubule stabilization on axon formation we treated hippocampal neurons after 1 DIV with low concentrations of the microtubule-stabilizing drug Taxol (FIGS. 4A and H). […] Taxol (also known as Paclitaxel) is successfully used as an anti-cancer drug so far as it arrests dividing cells in the G2-M-phase of cell division. Neurons grown in the presence of low concentrations of Taxol were fixed [with 4% PFA/sucrose] after 3 to 7 DIV and stained for the axonal marker Tau-1 or the dendritic marker MAP2. Under control conditions, neurons had formed one axon and several minor neurites (FIGS. 4D and E). […] The number of processes which exceeded 60 μm had increased more than 2-fold by Taxol treatment (DMSO 1.53±0.05, 3 nM Taxol 2.93±0.46, 10 nM Taxol 3.58±0.54) (FIG. 4F). Similarly, the number of cells with more than one Tau-1-positive process went up about 4-fold in a concentration-dependent manner in Taxol-treated neurons (from 20.19±3.19% in DMSO-treated neurons to 80.81±1.71% neurons treated with 10 nM Taxol) (FIG. 4G).

[4] = test system: lesioned dorsal column (CNS) axons; assay: Taxol application immediately after dorsal column lesion: retraction bulb formation, in vivo imaging; set-up: species or system GFP-M mice
Text: (§2) We used an Olympus SZX-12 fluorescent stereomicroscope equipped with 1× Plan Apochromat objective and 1.6× Plan Fluorite objective (Olympus). The ColorView II camera integrated to the microscope was used to capture images through Analysis FIVE software (Soft Imaging System). Animals were anesthetized as described. After removing the laminae at T11/12 level, a small unilateral lesion was applied with the vannas spring scissors (FST) by transecting only the superficial axons of the dorsal columns. We imaged the injury site before and after lesion by acquiring serial images. The animals were kept on a heating pad during the imaging session.
(§3) A small unilateral spinal cord lesion at T12 level was performed as described. 10 μl of 1 μM or 5 μM taxol (Sigma-Aldrich, diluted in Saline) or saline as control was applied onto the lesion site each hour starting immediately after or 24 hours after lesioning. The lesion sites were visualized by in vivo imaging as described. The animals' anesthesia was boosted after 3 hours. At the end of the observation period animals were perfused and prepared for the confocal imaging as described.
(§4) The size of retraction bulbs and growth cones was quantified as follows: the maximum diameter of the retraction bulb and growth cone at the tip of the axon was measured and divided by the axon diameter of the same end structure where the axon looked normal.
The distance of taxol and saline treated axons to the lesion site was quantified as follows: The lesion site was outlined from the in vivo binocular images. We then measured the distance of the axonal tips to the proximal edge of the lesion.

[5] = test system: lesioned dorsal column (CNS) axons; assay: Taxol application 24 hours after dorsal column lesion: regenerating sprouts; assay type: in vivo, mice
Text: as §2, §3
The length of the sprouts quantified on confocal images. The length of all sprouts including sprouts emerging from sprouts measured and summed up for final value. As number of sprouts, only primary sprouts emerging from directly axonal shaft were quantified.

astrocytes = assay: Astrocyte numbers in taxol treated cultures; assay type: cell-based
neurons = conditions: CNS; cited from earlier work
[6] = test system: growth cones of lesioned sciatic nerve axons; assay: Nocodazole application onto lesioned sciatic nerve (growth cone to bulb conversion); assay type: in vivo, GFP-M mice
Method: The mice were anesthetized as described. The sciatic nerve was exposed at around 2.5 cm from the DRG cell bodies by a small incision and crushed with forceps for ten seconds. The incision was sutured and the skin stapled. The anesthesia was reversed and the animals were transferred to a heating pad for the following 24 hours.
Sciatic nerve lesion was performed as described. After 24 hours animals were re-anesthetized and 10 μl of 330 μM of nocodazole (Sigma-Aldrich, diluted in 5% DMSO in PBS) or 5% DMSO alone was applied onto lesion site with a pipette. The injury site was closed and animals were perfused 24 hours after nocodazole or DMSO application for staining and imaging.
as §4

[7] = 5 μM Nocodazole, brief incubation
[8] = stage 2 neurons (1 DIV), 3.3 μM Nocodazole

Q: Which Lethal dose [1] does the source give for `CCC(=O)O[C@H]1C[C@H]2OC[C@@]2(OC(C)=O)[C@H]2[C@H](OC(=O)c3ccccc3)[C@]3(O)C[C@H](OC(=O)[C@H](O)[C@@H](NC(=O)OC(C)(C)C)c4ccco4)C(C)=C([C@@H](O)C(=O)[C@]12C)C3(C)C` [MAC-321, 5beta, 20-epoxy-1, 2alpha-, 4-, 7beta-, 10beta-, 13alpha-hexahydroxytax-11-en-9-one 4 acetate 2 benzoate 7-propionate 13-ester with (2R,3S)—N-tertbutoxycarbonyl-3-(2-furyl)isoserine] here?
A: 140 mg/kg

Q: Which “microtubule retraction in Taxol-induced axon-like processes” value (rat hippocampal neurons [2]; 10 nM Taxol for 24 h, then 5 μM Nocodazole briefly) does the source give for `CC(=O)O[C@H]1C(=O)[C@@]2(C)[C@H]([C@H](OC(=O)c3ccccc3)[C@]3(O)C[C@H](OC(=O)[C@H](O)[C@@H](NC(=O)c4ccccc4)c4ccccc4)C(C)=C1C3(C)C)[C@]1(OC(C)=O)CO[C@@H]1C[C@@H]2O` [Taxol, Tax-11-en-9-one, 5beta,20-epoxy-1,2alpha,4,7beta, 10beta,13alpha-hexahydroxy-, 4,10-diacetate 2-benzoate, 13-ester with (2R,3S)—N-benzoyl-3-phenylisoserine (8Cl)] here?
A: 7.48±1.761 μm

Q: And the “number of processes which exceeded 60 μm” value (rat hippocampal neurons [3]; 3 nM Taxol from 1 DIV)?
A: 2.93±0.46

Q: And the “cells with more than one Tau-1-positive process” value (rat hippocampal neurons [3]; 10 nM Taxol)?
A: 80.81±1.71%

Q: What about the “number of processes which exceeded 60 μm” value (rat hippocampal neurons [3]; 10 nM Taxol from 1 DIV) of the same compound?
A: 3.58±0.54

Q: What about the “increase of the number of cells with more than one Tau-1-positive process” value (rat hippocampal neurons [3]; 10 nM Taxol versus DMSO) of the same compound?
A: about 4 fold

Q: What about the “increase of the number of processes which exceeded 60 μm” value (rat hippocampal neurons [3]; Taxol treatment versus DMSO) of the same compound?
A: more than 2 fold

Q: And the “tip/axon ratio of retraction bulbs formed during treatment” value ([4]; 1 μM taxol, 5 biggest retraction bulbs per animal, 6 hours)?
A: 2.53±0.54

Q: What about the “animals with proximal axonal stumps as close as 25 μm to the injury site” value ([4]; 1 μM taxol, 6 hours after injury) of the same compound?
A: 6 out of 11

Q: What about the “axons that developed retraction bulbs (tip/axon ratio >2)” value ([4]; 10 μl of 1 μM taxol once per hour from immediately after injury, first 6 hours) of the same compound?
A: 22.8%±13.1%

Q: What about the “animals in which the extended retraction bulb with filopodia like extensions was observed” value ([5]; 5 μM taxol, 48 h post injury) of the same compound?
A: 4 out of 12

Q: And the “sprout terminals with extended retraction bulb with several filopodia like extensions” value ([5]; 5 μM taxol, 48 h post injury)?
A: 8.9%±5.0%

Q: What about the “sprout terminals with slim growth cone morphology” value ([5]; 5 μM taxol, 48 h post injury) of the same compound?
A: 57%±20%

Q: What about the “sprout terminals with small retraction bulb morphology” value ([5]; 5 μM taxol, 48 h post injury) of the same compound?
A: 41.8%±16.6%

Q: And the “total number of the sprouts from one axon” value ([5]; 10 μl of 5 μM taxol once each hour, 4-5 times, from 24 h post injury, read 48 h post injury)?
A: 7.83±1.79

Q: What about the astrocyte numbers (astrocytes) of the same compound?
A: drastic reduction in astrocyte numbers

Q: And the neuronal death (neurons)?
A: induces dose-dependent neuronal death

Q: With `COC(=O)Nc1nc2ccc(C(=O)c3cccs3)cc2[nH]1` [Nocodazole] as the compound, how does the “microtubule retraction of minor neurites” value (rat hippocampal neurons [2]; [7]) read?
A: 12.47±2.221 μm

Q: And the “retraction of axonal microtubules” value (rat hippocampal neurons [2]; [7])?
A: 8.89 μm

Q: What about the “average microtubule retraction of the remaining minor neurites” value (rat hippocampal neurons [2]; [8]) of the same compound?
A: 13.71±2.84 μm

Q: And the “microtubule retraction in the minor neurite with the lowest retraction” value (rat hippocampal neurons [2]; [8])?
A: 4.50±1.27 μm

Q: And the “cells in which microtubule retraction was significantly higher in minor neurites compared to axons” value (rat hippocampal neurons [2]; 3.3 μM Nocodazole)?
A: 59.3±6.9%

Q: What about the “cells in which microtubule retraction was significantly higher in minor neurites compared to axons” value (rat hippocampal neurons [2]; 5 μM Nocodazole) of the same compound?
A: 60%±5.1%

Q: What about the “number of processes per cell” value (rat hippocampal neurons [3]; 15 nM Nocodazole from 1 DIV) of the same compound?
A: 3.58±0.08

Q: What about the “increase of total neurite length from day 1 to day 3 in vitro” value (rat hippocampal neurons [3]; 45 nM Nocodazole) of the same compound?
A: more than 3 fold

Q: What about the “number of processes per cell” value (rat hippocampal neurons [3]; 45 nM Nocodazole from 1 DIV) of the same compound?
A: 2.64±0.08

Q: And the total neurite length (rat hippocampal neurons [3]; 45 nM Nocodazole)?
A: 197.31 μm

Q: What about the “increase of total neurite length from day 1 to day 3 in vitro” value (rat hippocampal neurons [3]; 75 nM Nocodazole) of the same compound?
A: > 2 fold

Q: And the “number of processes per cell” value (rat hippocampal neurons [3]; 75 nM Nocodazole from 1 DIV)?
A: 2.20±0.18

Q: And the total neurite length (rat hippocampal neurons [3]; 75 nM Nocodazole)?
A: 134.89 μm

Q: And the “axons that transformed their growth cones into a bulb” value ([6]; 10 μl of 330 μM nocodazole 24 h after sciatic nerve crush, evaluated 24 h after treatment)?
A: 42.3%±13.2% and 45%±13%

Q: And the “tip/axon shaft ratio of nocodazole induced retraction bulbs” value ([6]; 10 μl of 330 μM nocodazole, 24 h after treatment)?
A: 4.25±0.56
